Reference: patent US10106539B2, “Spiro-indolines for the treatment and prophylaxis of respiratory syncytial virus infection (RSV)” (REVIRAL LIMITED, priority 2014, dated 2018)
Like-named read-outs stand apart in the source and are kept apart here.

Key:
[1] = test system: human P-gp (MDR1); assay: MDR1-MDCK permeability; type: in vitro ADME; conditions: dog
Protocol: MDR1-MDCK Permeability: Experimental Procedure
MDR1-MDCK cells obtained from the NIH (Rockville, Md., USA) are used between passage numbers 6-30. Cells are seeded onto Millipore Multiscreen Transwell plates at 3.4×10^5 cells/cm2. The cells are cultured in DMEM and media is changed on day 3. On day 4 the permeability study is performed. Cell culture and assay incubations are carried out at 37° C. in an atmosphere of 5% CO2 with a relative humidity of 95%. On the day of the assay, the monolayers are prepared by rinsing both basolateral and apical surfaces twice with Hanks Balanced Salt Solution (HBSS) at the desired pH warmed to 37° C. Cells are then incubated with HBSS at the desired pH in both apical and basolateral compartments for 40 min to stabilise physiological parameters.
The dosing solutions are prepared by diluting test compound with assay buffer to give a final test compound concentration of 10 μM (final DMSO concentration of 1% v/v). The fluorescent integrity marker lucifer yellow is also included in the dosing solution. Analytical standards are prepared from test compound DMSO dilutions and transferred to buffer, maintaining a 1% v/v DMSO concentration.
For assessment of A-B permeability, HBSS is removed from the apical compartment and replaced with test compound dosing solution. The apical compartment insert is then placed into a companion plate containing fresh buffer (containing 1% v/v DMSO). For assessment of B-A permeability, HBSS is removed from the companion plate and replaced with test compound dosing solution. Fresh buffer (containing 1% v/v DMSO) is added to the apical compartment insert, which is then placed into the companion plate.
At 60 min the apical compartment inserts and the companion plates are separated and apical and basolateral samples diluted for analysis.
Test compound permeability is assessed in duplicate. Compounds of known permeability characteristics are run as controls on each assay plate.
Test and control compounds are quantified by LC-MS/MS cassette analysis using an 8-point calibration with appropriate dilution of the samples. The starting concentration (C0) is determined from the dosing solution and the experimental recovery calculated from C0 and both apical and basolateral compartment concentrations.
The integrity of the monolayer throughout the experiment is checked by monitoring lucifer yellow permeation using fluorimetric analysis. Lucifer yellow permeation is high if monolayers have been damaged.

[2] = Liver microsomal stability, rat; type: in vitro ADME; conditions: male, Sprague Dawley
Protocol: (§1) Microsomal Incubation: Experimental Procedure
(§2) Pooled human liver microsomes (pooled male and female), pooled rat liver microsomes (male Sprague Dawley rats) and pooled dog liver microsomes (male Beagle dog) are purchased from a reputable commercial supplier and stored at −80° C. prior to use.
(§3) The final incubation volume is 50 μL. A control incubation is included for each compound tested where 0.1 M phosphate buffer pH 7.4 is added instead of NADPH (minus NADPH). Two control compounds are included with each species. All incubations are performed singularly for each test compound.
(§4) The reactions are stopped by transferring 25 μL of incubate to 50 μL methanol at the appropriate time points. The termination plates are centrifuged at 2,500 rpm for 20 min at 4° C. to precipitate the protein. Following protein precipitation, the sample supernatants are combined in cassettes of up to 4 compounds, internal standard is added and samples analysed by LC-MS/MS. From a plot of ln peak area ratio (compound peak area/internal standard peak area) against time, the gradient of the line is determined. Subsequently, half-life and intrinsic clearance are calculated

[3] = Liver microsomal stability, human; type: in vitro ADME; conditions: both sexes, pH 7.4, human liver microsomes
Protocol: as §1, §2
as §3, with “Microsomes (final protein concentration 0.5 mg/mL), 0.1 M phosphate buffer pH 7.4 and test compound (final substrate concentration 3 μM; final DMSO concentration 0.25%) are pre-incubated at 37° C. prior to the addition of NADPH (final concentration 1 mM) to initiate the reaction. The” for “The”
as §4, with “Compounds are incubated for 0, 5, 15, 30 and 45 min. The control (minus NADPH) is incubated for 45 min only. The reactions” for “The reactions”

[4] = test system: RSV-BA (Brasil); assay: RSV plaque reduction assay, RSV-BA (Brasil), Vero cells; type: cell-based; conditions: human respiratory syncytial virus, n = 1
Protocol: Plaque Reduction Assay: […] After an overnight incubation at 37° C. in a humidified 5% CO2 atmosphere, the monolayer of cells should be approximately 90% confluent. Antiviral compounds were titrated in pre-warmed Serum Free (SF) Optimem in a U-bottom 96 well plate. […] Media was then removed from cells and replaced with PBS (100 μl/well). RSV stock was thawed and diluted in SF Optimem media to 4000 PFU/mLl. An equal volume of virus was added to compounds on the titration plate. PBS was removed from cells which were then inoculated with the virus/compound solution (50 μL/well). Cells were incubated for 2 h in a 37° C.+5% CO2 humidified incubator to allow infection. […] Immunostaining Procedure: Media was removed from cells and the monolayer washed with PBS. Cells were fixed with ice cold 80% Acetone in PBS (100 μl/well) for 20 mins at −20° C. […] Blocking solution was removed and plates washed once with PBS-T. Primary antibody in blocking solution was added to plates (50 μl/well) and incubated for 1 h at 37° C. Plates were then washed 3 times with PBS-T. Secondary antibody in blocking solution was added to plates (50 μL/well) and incubated for 1 h at 37° C. in the dark. […] Data Analysis: Images obtained were saved and plaque numbers counted with the aid of computer imaging software. […]

Structure (SMILES): NCc1ccc2c(c1)nc(CN1C(=O)C3(CC3)c3ccc(F)cc31)n2CCCC(F)(F)F [Example 1, 1′-{[5-(Aminomethyl)-1-(4,4,4-trifluorobutyl)-1H-1,3-benzodiazol-2-yl]methyl}-6′-fluoro-1′,2′-dihydrospiro[cyclopropane-1,3′-indole]-2′-one]
- Papp A→B at 60 min, 10 μM ([1]; A-B, 10 μM, 60 min, read-out: Permeability (Human Pgp transfected) MDCK Papp A-B): 0.5 ×10⁻⁶ cm/s
- Papp B→A at 60 min, 10 μM ([1]; B-A, 10 μM, 60 min, read-out: Permeability (Human Pgp transfected) MDCK Papp B-A): 73 ×10⁻⁶ cm/s
- half-life at 3 μM ([2]; pH 7.4, rat liver microsomes, 3 μM compound, read-out: Liver Microsomal Stability T1/2, rat): 80 min
- half-life at 3 μM ([3]; 3 μM compound, read-out: Liver Microsomal Stability T1/2, human): 32 min
- IC50 [4]: 2.1 nM
- IC90 [4]: 34.5 nM

Structure (SMILES): CC(C)CCn1c(CN2C(=O)C3(CC3)c3ccccc32)nc2cc(CN)ccc21 [RV039, 1′-((5-(aminomethyl)-1-isopentyl-1H-benzo[d]imidazol-2-yl)methyl)spiro[cyclopropane-1,3′-indolin]-2′-one, reference compound]
- Papp A→B at 60 min, 10 μM [1]: 0.42 ×10⁻⁶ cm/s
- Papp B→A at 60 min, 10 μM [1]: 49 ×10⁻⁶ cm/s
- half-life at 3 μM ([2]; pooled liver microsomes, pH 7.4, Comparative Example 2, read-out: Liver Microsomal Stability T1/2, rat (Table 5)): > 95 min
- half-life at 3 μM ([3]; Comparative Example 2, read-out: Liver Microsomal Stability T1/2, human (Table 5)): 5 min
